The source of these data is patent US20250019445A1, “P-SELECTIN INHIBITION FOR TREATMENT OF CANCER” (Ramot at Tel-Aviv University Ltd., priority 2022, published 2025).

The subject of data set [1] is Human MDA-BM-231 3D spheroids. In words: Breast cancer 3D spheroid invasion. The data set is classed as cell-based. As to conditions: co-cultured with brain microenvironment cells; FIG. 7B.
A further data set has as its system A549 spheroids. Description: Lung cancer spheroid growth and invasion. The data set is classed as cell-based, human.
The conditions of data set [2]: patients, administered systemically; cited from earlier work.
The conditions of data set [3]: different animal models; wording wraps from r29 ("anti-") to r30; cited from earlier work.
For data set [4], the system named is P-selectin-, E-selectin-, and L-selectin-dependent adhesion. To be noted: in humans in vitro; cited from earlier work.

Take `COc1ccc(C2CC(c3c(O)cc(C)oc3=O)=NCCS2)c(OC)c1` (stereo not shown) [SELPi, 3-[7-(2,4-Dimethoxyphenyl)-2,3,6,7-tetrahydro-1,4-thiazepin-5-yl]-4-hydroxy-6-methyl-2H-pyran-2-one]: in data set [1], the spheroid invasion entry is “reduced invasion”. In addition, the “spheroid growth and invasion in Matrigel” value in the data set with A549 spheroids (FIG. 8D) was “reduced A549 spheroid growth and invasion in Matrigel, in a dose-dependent manner”. Also, the spheroid growth result with A549 spheroids (in the presence of human microglia, FIG. 8C) is listed as “inhibits A549 spheroid growth”. For “inclacumab: monoclonal antibody directed towards P-selectin”, in data set [2], the tolerability entry is on record as “well tolerated”. On to `O=C(O)Cc1cccc(-c2cc(CCCCCCc3ccc(O[C@H]4O[C@H](CO)[C@@H](O)[C@H](O)[C@@H]4O)c(-c4cccc(CC(=O)O)c4)c3)ccc2O[C@H]2O[C@H](CO)[C@@H](O)[C@H](O)[C@@H]2O)c1` [Bimosiamose], for which the anti-inflammatory effects entry in data set [3] is listed as “inflammatory effects in different animal models”. The “inhibition of selectin-dependent adhesion” value in data set [4] was “been shown to inhibit P-selectin-, E-selectin-, and L-selectin-”.

B1: crizanlizumab: Humanized monoclonal anti-P-selectin antibody. (antibody, chains of the INN, looked up, V domains shown)
VH: QVQLVQSGAEVKKPGASVKVSCKVSGYTFTSYDINWVRQAPGKGLEWMGWIYPGDGSIKYNEKFKGRVTMTVDKSTDTAYMELSSLRSEDTAVYYCARRGEYGNYEGAMDYWGQGTLVTVSS
VL: DIQMTQSPSSLSASVGDRVTITCKASQSVDYDGHSYMNWYQQKPGKAPKLLIYAASNLESGVPSRFSGSGSGTDFTLTISSLQPEDFATYYCQQSDENPLTFGGGTKVEIK
Take B1: in data set [2], the tolerability result is given as “well tolerated”.
